Counter-ions that a name gives are not always drawn. Like-named read-outs stand apart in the source and are kept apart here. Blank lines part the entries; values can stand above or below the compound they belong to.
Legend:
human MCH1 receptor [1] = molecular target: T1, human MCH1 receptor (Homo sapiens, UniProt Q99705); assay: Intracellular calcium response to MCH in COS-7 cells transfected with MCH1 (fluo-3, FLIPR): antagonist potency; type: cell-based; parameters: expressed in transfected cells; host or cells: COS-7; conditions: read-out: Kb (nM) hMCH1
T1 sequence (Q99705 whole entry): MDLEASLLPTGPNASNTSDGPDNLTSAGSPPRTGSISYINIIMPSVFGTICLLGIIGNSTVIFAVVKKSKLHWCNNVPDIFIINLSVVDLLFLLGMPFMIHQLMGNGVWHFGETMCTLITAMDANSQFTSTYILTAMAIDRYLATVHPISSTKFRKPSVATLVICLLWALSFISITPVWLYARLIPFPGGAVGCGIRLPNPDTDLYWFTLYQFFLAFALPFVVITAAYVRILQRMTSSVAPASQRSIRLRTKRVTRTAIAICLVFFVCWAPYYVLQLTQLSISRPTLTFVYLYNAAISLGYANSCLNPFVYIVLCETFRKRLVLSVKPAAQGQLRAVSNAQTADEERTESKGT
Excerpt: MCH1 antagonist compounds were identified by their ability to inhibit the MCH-elicited response. […]. From the IC50 values, the antagonist potency (Kb)was derived using the Cheng-Prussof correction (Lazareno and Birdsall, 1993). […]

human MCH1 receptor [2] = molecular target: T1, human MCH1 receptor; assay: Competition binding, membrane preparations of A293 cells expressing the human MCH1 receptor, [3H] Compound 10 as radioligand; parameters: expressed in transfected cells; conditions: Table 3b; A293 cell membranes, [3H] Compound 10; read-out: hMCH1* Ki
Procedure: TRITIATED METHYL (4S)-3-{[(3-{4-[3-(ACETYLAMINO)PHENYL]-1-[…]}PROPYL)AMINO]CARBONYL}-4-(3,4-DIFLUOROPHENYL)-6-(METHOXYMETHYL)-2-OXO-1,2,3,4-TETRAHYDRO-5-PYRIMIDINECARBOXYLATE ([^3H] COMPOUND 10): This radiochemical synthesis was carried out by Amersham Pharmacia Biotech, Cardiff, Wales. A methanolic solution of methyl (4S)-3-({[3-(4-[3-(acetylamino)phenyl]-3,6-dihydro-1(2H)pyridinyl)propyl]amino}carbonyl)-4-(3,4-difluorophenyl)-6-(methoxymethyl)-2-oxo-1,2,3,4-tetrahydro-5-pyrimidinecarboxylate was exposed to tritium gas at 1 atmosphere pressure in the presence of 5% palladium on carbon with stirring overnight to give the tritiated methyl (4S)-3-{[(3-{4-[3-(acetylamino)phenyl]-1-piperidinyl}propyl)amino]carbonyl}-4-(3,4-difluorophenyl)-6-(methoxymethyl)-2-oxo-1,2,3,4-tetrahydro-5-pyrimidinecarboxylate ((+)-isomer) After purification by reverse phase HPLC (Hypersil ODS, 4.6×100 mm, methanol:H2O:Et3N 10:90:1 to 100:0:1 in 15 min at 1.0 mL/min, with radiochemical and UV detection), this product was used as a radioligand in the MCH1 binding assays. The same procedure was carried out with H2 gas in place of ^3H2 to afford the non-radioactive version of Compound 10.

human GALR1 receptor = molecular target: T2, human GALR1 receptor (Homo sapiens, UniProt P47211); assay: Binding affinity at the human GALR1 receptor; conditions: read-out: hGALR1 Ki
T2 construct: expressed in transfected cells
T2 sequence (P47211 1-349): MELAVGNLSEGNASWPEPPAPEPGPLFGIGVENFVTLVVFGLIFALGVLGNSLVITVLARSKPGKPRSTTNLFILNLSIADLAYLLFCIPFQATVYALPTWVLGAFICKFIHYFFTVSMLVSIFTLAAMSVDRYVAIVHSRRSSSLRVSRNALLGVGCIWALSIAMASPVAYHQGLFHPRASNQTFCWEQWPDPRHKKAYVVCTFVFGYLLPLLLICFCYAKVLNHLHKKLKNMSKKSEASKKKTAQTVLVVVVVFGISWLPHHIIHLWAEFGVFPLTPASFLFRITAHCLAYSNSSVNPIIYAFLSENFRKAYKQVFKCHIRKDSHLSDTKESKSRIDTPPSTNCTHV
Excerpt: (§1) The design of such compounds can be optimized by determining their binding affinity at the recombinant MCH1, NPY1, NPY2, Gal1, Gal2, Gal3, and 5HT2C receptors. The methods to obtain the cDNA of the receptor, express said receptors in heterologous systems, and carry out assays to determine binding affinity are described in the following publications: human NPY1 (Larhammar et al., 1992), human NPY5 (U.S. Pat. No. 5,602,024, the disclosure of which is hereby incorporated by reference in its entirety into this application), human Gall (Habert-Ortoli et al., 1994), human Gal2 (Smith et al., 1997), human Gal3 (Smith et al., 1998), and rat 5HT2C (Julius et al., 1988). Additionally, the compounds would optimally not bind at the following receptors due to possible side effects: human H1 histamine and human H2 histamine receptors; human alpha-1A adrenergic, human alpha-1D adrenergic, human alpha-2A adrenergic, human alpha-2B adrenergic, and human alpha-2C adrenergic receptors; human dopamine D1, D2, D3, D4, and D5 receptors; the β-adrenoceptor; and the human 5HT1A, human 5HT1B, human 5HT1D, human 5HT1E, human 5HT1F, human 5HT2A, rat 5HT2C, human 5HT4, human 5HT6, and human 5HT7 receptors.

human GALR2 receptor = molecular target: T3, human GALR2 receptor (Homo sapiens, UniProt O43603); assay: Binding affinity at the human GALR2 receptor; conditions: read-out: hGALR2 Ki
T3 construct: expressed in transfected cells
T3 sequence (O43603 1-387): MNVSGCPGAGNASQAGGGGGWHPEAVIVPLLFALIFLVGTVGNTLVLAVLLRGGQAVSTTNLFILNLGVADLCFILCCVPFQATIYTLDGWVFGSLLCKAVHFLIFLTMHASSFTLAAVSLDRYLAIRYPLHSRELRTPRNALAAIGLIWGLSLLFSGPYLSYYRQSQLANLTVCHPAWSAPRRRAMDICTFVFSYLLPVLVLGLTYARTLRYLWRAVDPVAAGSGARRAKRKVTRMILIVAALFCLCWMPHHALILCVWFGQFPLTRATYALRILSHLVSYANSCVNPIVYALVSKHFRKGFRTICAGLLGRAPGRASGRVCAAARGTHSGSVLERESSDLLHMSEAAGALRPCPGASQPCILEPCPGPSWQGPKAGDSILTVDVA
Excerpt: as §1

human GALR3 receptor = molecular target: T4, human GALR3 receptor (Homo sapiens, UniProt O60755); assay: Binding affinity at the human GALR3 receptor; conditions: read-out: hGALR3 Ki
T4 construct: expressed in transfected cells
T4 sequence (O60755 1-368): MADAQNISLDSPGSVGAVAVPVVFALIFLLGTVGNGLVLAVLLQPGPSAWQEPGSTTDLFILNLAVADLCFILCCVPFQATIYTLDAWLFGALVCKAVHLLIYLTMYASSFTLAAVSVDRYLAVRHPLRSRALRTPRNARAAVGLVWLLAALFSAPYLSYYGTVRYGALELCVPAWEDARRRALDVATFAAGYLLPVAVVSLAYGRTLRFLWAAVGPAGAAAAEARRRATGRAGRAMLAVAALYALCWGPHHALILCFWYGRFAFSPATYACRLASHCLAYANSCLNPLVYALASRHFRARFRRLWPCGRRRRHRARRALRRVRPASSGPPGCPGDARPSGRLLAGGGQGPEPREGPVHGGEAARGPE
Excerpt: as §1

rat 5HT2C receptor = molecular target: T5, rat 5HT2C receptor (Rattus norvegicus, UniProt P08909); assay: Binding affinity at the rat 5HT2C receptor; conditions: read-out: r5HT2C Ki
T5 construct: expressed in transfected cells
T5 sequence (P08909 33-460): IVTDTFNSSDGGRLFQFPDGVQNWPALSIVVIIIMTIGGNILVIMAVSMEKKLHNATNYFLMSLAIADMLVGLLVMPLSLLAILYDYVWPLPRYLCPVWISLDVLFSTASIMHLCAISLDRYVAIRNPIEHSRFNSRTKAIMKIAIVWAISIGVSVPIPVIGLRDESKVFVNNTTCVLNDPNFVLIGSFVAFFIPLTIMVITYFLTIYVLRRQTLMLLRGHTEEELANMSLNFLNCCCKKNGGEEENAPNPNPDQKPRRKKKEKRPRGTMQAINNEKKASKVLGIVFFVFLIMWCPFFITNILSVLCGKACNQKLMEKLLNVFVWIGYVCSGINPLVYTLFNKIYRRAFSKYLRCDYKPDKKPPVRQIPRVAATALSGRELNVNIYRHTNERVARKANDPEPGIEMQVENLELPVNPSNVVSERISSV
Excerpt: as §1
Other 5HT Receptors: Other serotonin receptor binding assays were performed according to published methods: rat 5HT2C receptor (Julius et al., 1988); and 5HT6 (Monsma, et al., 1993). The binding assays using the 5HT4 receptor were performed according to the procedures described in U.S. Pat. No. 5,766,879, the disclosure of which is hereby incorporated by reference in its entirety into this application.

Structure (SMILES): COCC1=C(C(=O)OC)C(c2ccc(F)c(F)c2)N(C(=O)NCCCN2CCC(OC(C)=O)(c3ccccc3)CC2)C(=O)N1 (centres unmarked) (as salt: hydrochloride) [Example 3, (1)-1,2,3,6-TETRAHYDRO-1-{N-[3-(4-O-ACETYL)-4-PHENYLPIPERIDIN-1-YL]PROPYL}CARBOXAMIDO-5-METHOXYCARBONYL-4-METHOXYMETHYL-6-(3,4-DIFLUOROPHENYL)-2-OXOPYRIMIDINE]
melting point: 82 to 84 °C

Structure (SMILES): COC(=O)C1=C(C)NC(=O)N(C(=O)NCCCN2CCC3(CC2)OCc2ccccc23)C1c1ccc(F)c(F)c1 (centres unmarked) (as salt: hydrochloride) [Example 20, 4-(3,4-DIFLUORPHENYL)-6-METHYL-2-OXO-3-{[3-(4-SPIRO[ISOBENZOFURAN-1(3H),4′-PIPERIDINE]PROPYL}-1,2,3,4-TETRAHYDROPYRIMIDINE-5-CARBOXYLIC ACID METHYL ESTER]
melting point: 178 to 182 °C

Structure (SMILES): COC(=O)C1=C(C)NC(=O)N(C(=O)NCCCN2CCC3(CC2)OCc2ccccc23)C1c1ccc2nonc2c1 (single isomer, unassigned) (as salt: hydrochloride) [Example 18]
melting point: 180 to 182 °C

Structure (SMILES): COCC1=C(C(=O)OC)C(c2ccc(F)c(F)c2)N(C(=O)NCCCN2CCC(C)(c3ccccc3)CC2)C(=O)N1 (single isomer, unassigned; (+)) [Example 36, (+)-1,2,3,6-TETRAHYDRO-5-METHOXYCARBONYL-4-METHOXYMETHYL-2-OXO-1-{N-[3-(4-METHYL-4-PHENYL PIPERIDINE-1-YL]PROPYL}-6-(3,4-DIFLUOROPHENYL) PYRIMIDINE]
Kb (human MCH1 receptor [1]): 406 nM

Structure (SMILES): COCC1=C(C(=O)OC)C(c2ccc(F)c(F)c2)N(C(=O)NCCCN2CC=C(c3cccc(NC(C)=O)c3)CC2)C(=O)N1 (centres unmarked) [Example 2, METHYL 3-[(3-4-[3-(ACETYLAMINO)PHENYL]-1,2,3,6-TETRAHYDRO-1-PYR-IDINYLPROPYL)AMINO]CARBONYL-4-(3,4-DIFLUOROPHENYL)-6-(METHOXY-METHYL)-2-OXO-1,2,3,4-TETRAHYDRO-5-PYRIMIDINECARBOXYLATE]
Ki (human MCH1 receptor [2]): 0.049 µM
Ki (human GALR1 receptor; Table 3a): > 50 µM
Ki (human GALR1 receptor; Table 3b): > 50 µM
Ki (human GALR2 receptor; Table 3a): > 50 µM
Ki (human GALR2 receptor; Table 3b): > 50 µM
Ki (human GALR3 receptor; Table 3a): > 50 µM
Ki (human GALR3 receptor; Table 3b): > 50 µM
Ki (rat 5HT2C receptor; Table 3a): 39.8 µM
Ki (rat 5HT2C receptor; Table 3b): 39.8 µM

Structure (SMILES): O=C(NC1CCN(CCC2CCc3ccccc3C2=O)CC1)c1ccccc1 (centres unmarked) [Example 5]
melting point: 158 to 159 °C

Second part, the compound after the results:

melting point: 243 to 244 °C
Structure (SMILES): O=C(CCCN1CCC(NC(=O)c2ccccc2)CC1)c1ccc(Cl)cc1 (as salt: HCl) [Example 28, [3-(4-CHLOROBENZOYL)]PROPYL-4-BENZAMIDOPIPERIDINE]

melting point: 66 to 71 °C
Structure (SMILES): COC(=O)C1=C(C)NC(=O)N(C(=O)NCCCN2CCN(c3ccccc3C)CC2)C1c1ccc(F)c(F)c1 (centres unmarked) (as salt: hydrochloride) [Example 35, 1,2,3,6-TETRAHYDRO-1{N-[4-(2′-METHYL-PHENYL)PIPERAZIN-1-YL]-PROPYL}-CARBOXAMIDO-4-METHYL-6-(3,4-DIFLUOROPHENYL)-2-OXO-PYRIMIDINE]

melting point: 155 to 157 °C
Structure (SMILES): COC(=O)C1=C(C)NC(=O)N(C(=O)NCCCN2CCC3(CCc4ccccc43)CC2)C1c1ccc2nonc2c1 (racemic) (as salt: hydrochloride) [Example 21]

melting point: 150 to 153 °C
Structure (SMILES): COC(=O)C1=C(C)NC(=O)N(C(=O)NCCCN2CCN(c3ccccc3[N+](=O)[O-])C[C@@H]2C)C1c1ccc(F)c(F)c1 (single isomer, unassigned; (+)) (as salt: HCl) [Example 34]

Kb (human MCH1 receptor [1]): 35 nM
melting point: 80 to 84 °C
Structure (SMILES): COCC1=C(C(=O)OC)C(c2ccc(F)c(F)c2)N(C(=O)NCCCN2CCC(c3cccc(OC)c3)CC2)C(=O)N1 (single isomer, unassigned; (+)) [Example 9, (+)-1,2,3,6-TETRAHYDRO-1-N-[4-(3-METHOXY)-PHENYL}-PIPERIDIN-1-YL]-PROPYL-CARBOXAMIDO-4-METHOXYMETHYL-6-(3,4-DIFLUOROPHENYL)-2-OXOPYRIMIDINE-5-CARBOXYLIC ACID METHYL ESTER]

Kb (human MCH1 receptor [1]): 68 nM
Structure (SMILES): COC(=O)C1=C(C)NC(=O)N(C(=O)NCCCN2CCC3(CC2)C(=O)CCc2ccccc23)C1c1ccc2nonc2c1 (centres unmarked) [Example 23, HYDROCHLORIDE]

Kb (human MCH1 receptor [1]): 102 nM
Structure (SMILES): COC(=O)C1=C(C)NC(=O)N(C(=O)NCCCN2CCC3(CC2)C(=O)CCc2ccccc23)C1c1ccc(F)c(F)c1 (centres unmarked) [Example 24]

melting point: 150 to 153 °C
Structure (SMILES): COC(=O)C1=C(C)NC(=O)N(C(=O)NCCCN2CCC3(CCc4ccccc43)CC2)C1c1ccc(F)c(F)c1 (centres unmarked) [Example 32]
